This note sets out measurements from ChEMBL document CHEMBL1201862, “PubChem BioAssay data set” (2004).

Some test systems named below: KM12; HL-60; NCI-H226; HOP-62; SW-620; U-251; K562; UO-31; HOP-92; NCI-H522; RXF 393; EKVX; UACC-257; HCT-15; IGROV-1; NCI-H23.
Common to all, as to assay: NCI anticancer screen, dose series, 48 h

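96-well plates; 48 h exposure; 5 concentrations. Endpoints by linear interpolation between flanking doses. Not reached: highest tested concentration assigned. The concentration for 50% growth inhibition is given as GI50.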 Calls of active or inactive are those of the source. Rule as the data show it: active = GI50 up to about 1.1 µM and inactive = higher.

As to `CCN(CC)C(=S)S` [DITIOCARB SODIUM], the GI50 was 0.646 µM (active) in the assay with KM12; 0.294 µM (active) in the assay on HL-60; > 100 µM (inactive) in the assay on NCI-H226; > 100 µM (inactive) in the assay on HOP-62; 0.117 µM (active) in the assay on SW-620; 0.299 µM (active) with U-251. Further, the GI50 in the assay with K562 is 0.138 µM (active); in the assay with UO-31, > 100 µM (inactive); in the assay on HOP-92 it was > 76.6 µM (inactive); with NCI-H522, 0.103 µM (active); with RXF 393 it was > 57.4 µM (inactive); with EKVX, > 100 µM (inactive). Besides, the figures for the GI50 in the assay with UACC-257 and in the assay on HCT-15 were 21.2 µM (inactive) and greater than 62.5 µM, respectively.
On to `O=C(c1ccc(Cl)cc1Cl)C1[C@H]2C(=O)N(c3ccc(Cc4ccc(N5C(=O)[C@@H]6ON(c7ccccc7)C(C(=O)c7ccc(Cl)cc7Cl)[C@@H]6C5=O)cc4)cc3)C(=O)[C@H]2ON1c1ccccc1` (stereo partly specified), for which the GI50 in the assay on KM12, in the assay with HL-60, in the assay with IGROV-1, with NCI-H226, in the assay with HOP-62 and in the assay on SW-620 was > 50 µM (inactive) throughout. Moreover, the GI50 with U-251, with K562, with UO-31, in the assay on NCI-H23, in the assay on NCI-H522 and in the assay on RXF 393 was > 50 µM (inactive) in each case. Moreover, the GI50 with UACC-257 was > 50 µM (inactive); in the assay on HCT-15, greater than 50 µM.
Take `CC1CC[C@@]23CCC4(C)[C@@](C=CC5[C@@]6(C)CCC(=O)C(C)(C)C6CC[C@]54C)(OC2=O)[C@@H]3[C@H]1C` (stereo partly specified): the GI50 in the assay on KM12 is 12 µM (inactive); in the assay with HL-60, 1.6 µM (inactive); in the assay on IGROV-1 it was 21.1 µM (inactive); with NCI-H226, 19.8 µM (inactive); with HOP-62, 16.9 µM (inactive); with SW-620, 30.8 µM (inactive). Besides, the GI50 is 17.3 µM (inactive) with U-251; 6.3 µM (inactive) with K562; 8.02 µM (inactive) in the assay on UO-31; 11.9 µM (inactive) with NCI-H23; 15.9 µM (inactive) in the assay on HOP-92; 11 µM (inactive) in the assay on NCI-H522. For the same molecule, the GI50 with RXF 393 was 14.1 µM (inactive); with EKVX, 32.1 µM (inactive); in the assay on UACC-257, 6.59 µM (inactive).
Consider `COc1cccc(/C=C/c2cc(OC)c(OC)c(OC)c2)c1`, for which the GI50 was 66.4 µM (inactive) in the assay with KM12; 47.2 µM (inactive) with IGROV-1; 18.4 µM (inactive) in the assay with NCI-H226; 37 µM (inactive) with HOP-62; 50.4 µM (inactive) in the assay on SW-620; 36.5 µM (inactive) with U-251. In addition, the GI50 in the assay on K562 is 33.3 µM (inactive); with UO-31 it was 21.2 µM (inactive); in the assay with NCI-H23 it was 30.3 µM (inactive); in the assay on HOP-92, > 100 µM (inactive); with NCI-H522, > 100 µM (inactive); with EKVX, 36.2 µM (inactive). For the same molecule, the GI50 is 38.3 µM (inactive) with UACC-257 and 53 µM in the assay on HCT-15.
On to `COc1ccc2[nH]c3c(c2c1)[C@H](c1ccccc1)C[C@@H]1C(=O)N(c2ccccc2)C(=O)[C@H]31`, for which the GI50 in the assay on KM12 is 17.5 µM (inactive); in the assay on IGROV-1, 26.9 µM (inactive); in the assay on NCI-H226 it was 19.4 µM (inactive); in the assay with HOP-62 it was 22 µM (inactive); in the assay with SW-620 it was 20.7 µM (inactive); in the assay with U-251, 18 µM (inactive). Moreover, the GI50 in the assay with K562 was 47.9 µM (inactive); in the assay with UO-31, 22.9 µM (inactive); with HOP-92, 37.3 µM (inactive); in the assay with NCI-H522, 31.3 µM (inactive); with RXF 393 it was 16 µM (inactive); in the assay on EKVX, 89.1 µM (inactive). The GI50 was > 100 µM (inactive) in the assay with UACC-257 and 41.7 µM with HCT-15.
Consider `CC(/C(=N\Nc1ccccc1)c1ccc(O)cc1)C1C(=O)Oc2ccccc21` (stereo unspecified), for which the GI50 with KM12, in the assay on HL-60, in the assay with IGROV-1, in the assay with HOP-62, with SW-620 and with U-251 was > 100 µM (inactive) in each case. The GI50 is > 100 µM (inactive) in the assay with K562; > 100 µM (inactive) in the assay on UO-31; > 100 µM (inactive) with RXF 393; > 100 µM (inactive) with EKVX; > 100 µM (inactive) in the assay on UACC-257; greater than 100 µM with HCT-15.
For the molecule `Cc1ccc(NC(=O)CC2SC(=N)NC2=O)cc1C` (stereo unspecified), the GI50 with KM12, in the assay on HL-60, in the assay on IGROV-1, in the assay with NCI-H226, with HOP-62 and in the assay with SW-620 was > 100 µM (inactive) each time. The GI50 with U-251 was 64.3 µM (inactive); in the assay with K562, > 100 µM (inactive); in the assay with UO-31 it was > 100 µM (inactive); in the assay with NCI-H23, > 100 µM (inactive); in the assay with HOP-92 it was > 100 µM (inactive); in the assay with NCI-H522 it was > 100 µM (inactive). The results for the GI50 in the assay with UACC-257 and in the assay with HCT-15 were > 100 µM (inactive) and greater than 100 µM, respectively.
Take `COC(=O)CC1C[C@H](C#N)N(C(=O)c2ccccc2)C[C@@H]1CC[N+](=O)[O-]` (stereo partly specified): the GI50 in the assay with KM12, with HL-60, with IGROV-1, in the assay with HOP-62, in the assay on SW-620 and with U-251 was > 100 µM (inactive) each time. In addition, the GI50 in the assay on K562, in the assay with UO-31, with NCI-H23, in the assay with HOP-92, with RXF 393 and in the assay with EKVX was > 100 µM (inactive) each time. For the same molecule, the results for the GI50 in the assay with UACC-257 and with HCT-15 were > 100 µM (inactive) and greater than 100 µM, respectively.
`COC(CN1C(=O)c2cccc3cccc(c23)C1=O)OC`: the GI50 in the assay with KM12 was 80.4 µM (inactive); in the assay on HL-60, 72.9 µM (inactive); in the assay on IGROV-1, > 100 µM (inactive); with NCI-H226, 26.2 µM (inactive); with HOP-62 it was 43.7 µM (inactive); in the assay on SW-620, 91.8 µM (inactive). Also, the GI50 with U-251 was 42.4 µM (inactive); in the assay on K562, 68.5 µM (inactive); in the assay with UO-31 it was 37.1 µM (inactive); in the assay on NCI-H23, > 100 µM (inactive); in the assay with HOP-92 it was 73.5 µM (inactive); with RXF 393, > 100 µM (inactive). In addition, the GI50 in the assay on EKVX was 49 µM (inactive); in the assay on UACC-257 it was 78.2 µM (inactive); in the assay on HCT-15, 53.6 µM.
Turning to `COc1ccc2[nH]c3c(C)cc([N+](=O)[O-])c(C)c3c2c1`, the GI50 with KM12 is 19.7 µM (inactive); with HL-60 it was 16.6 µM (inactive); in the assay with IGROV-1, 27.4 µM (inactive); in the assay with NCI-H226, 43.7 µM (inactive); in the assay on SW-620, 21.7 µM (inactive); with U-251, 22.9 µM (inactive). In addition, the GI50 was 18.4 µM (inactive) with K562; 21.6 µM (inactive) in the assay on UO-31; 22.6 µM (inactive) with NCI-H23; 28.4 µM (inactive) with HOP-92; 17.1 µM (inactive) with NCI-H522; 19 µM (inactive) in the assay with RXF 393. Moreover, the GI50 with EKVX was 31 µM (inactive); in the assay on UACC-257, 31.2 µM (inactive); in the assay on HCT-15 it was 26.6 µM.
